Test results: the supplement of paper PMC10883282
± gives the standard deviation of the averaged measurements.

Test system: SW684
Assay: relative viability vs DMSO control (72 h) (fraction); higher = more viable cells
Method in brief: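 Sarcoma cell lines in 384-well plates, seeded to reach 80–90% confluence, were given compound after 24 h and kept 72 h at 37 °C, 5% CO2, with 0.1% DMSO vehicle and a 5 µM positive control. Relative viability came from ATPLite as percent growth, averaged over up to triplicate wells. On the rescaled values, 1 equals full and 0 equals none.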

| Compound | relative viability (0.00017 µM) | relative viability (0.00051 µM) | relative viability (0.00152 µM) | relative viability (0.00457 µM) | relative viability (0.01372 µM) | relative viability (0.04115 µM) | relative viability (0.1235 µM) | relative viability (0.3704 µM) | relative viability (1.111 µM) | relative viability (3.333 µM) | relative viability (10 µM) | relative viability (2 pM) | relative viability (5 pM) | relative viability (15 pM) | relative viability (50 pM) | relative viability (0.00014 µM) | relative viability (0.00041 µM) | relative viability (0.0012 µM) | relative viability (0.0037 µM) | relative viability (0.011 µM) | relative viability (200 fM) | relative viability (600 fM) |
| --- | --- | --- | --- | --- | --- | --- | --- | --- | --- | --- | --- | --- | --- | --- | --- | --- | --- | --- | --- | --- | --- | --- |
| Cc1ccc(F)c(NC(=O)Nc2ccc(-c3cccc4[nH]nc(N)c34)cc2)c1 [Linifanib] | 1.11 ± 0.014 | 1.14 ± 0.02 | 1.13 ± 0.039 | 1.18 ± 0.03 | 1.17 ± 0.023 | 1.18 ± 0.04 | 1.15 ± 0.027 | 1.139 ± 0.011 | 1.16 ± 0.045 | 1.15 ± 0.049 | 1.12 ± 0.041 |  |  |  |  |  |  |  |  |  |  |  |
| C[C@]1(O)C[C@@H](c2nc(-c3ccc4ccc(-c5ccccc5)nc4c3)c3c(N)nccn32)C1 [Linsitinib] | 1.13 ± 0.073 | 1.17 ± 0.016 | 1.18 ± 0.021 | 1.159 ± 0.0094 | 1.16 ± 0.065 | 1.14 ± 0.021 | 1.13 ± 0.039 | 1.11 ± 0.04 | 1.09 ± 0.035 | 1.07 ± 0.019 | 0.978 ± 0.057 |  |  |  |  |  |  |  |  |  |  |  |
| Cc1ccc(NC(=O)c2ccc(CN3CCN(C)CC3)cc2)cc1Nc1nc(-c2cccnc2)cs1 [Masitinib] | 1.04 ± 0.017 | 1.07 ± 0.038 | 1.11 ± 0.029 | 1.08 ± 0.027 | 1.07 ± 0.034 | 1.1 ± 0.025 | 1.06 ± 0.043 | 1 ± 0.025 | 0.851 ± 0.014 | 0.508 ± 0.066 | 0.0554 ± 0.0057 |  |  |  |  |  |  |  |  |  |  |  |
| CC1(C)CNc2cc(NC(=O)c3cccnc3NCc3ccncc3)ccc21 [Motesanib] | 1.04 ± 0.033 | 0.999 ± 0.073 | 0.999 ± 0.065 | 1.01 ± 0.084 | 0.978 ± 0.016 | 0.9719 ± 0.0041 | 0.99 ± 0.079 | 0.94 ± 0.016 | 0.98 ± 0.064 | 1.02 ± 0.043 | 0.859 ± 0.039 |  |  |  |  |  |  |  |  |  |  |  |
| CC(C)N1CCN(Cc2cnc(-c3cc(-c4cccc5[nH]ccc45)cc4[nH]ncc34)o2)CC1 [Nemiralisib] | 1 ± 0.084 | 0.911 ± 0.069 | 0.851 ± 0.033 | 0.804 ± 0.014 | 0.721 ± 0.019 | 0.68 ± 0.051 | 0.695 ± 0.011 | 0.618 ± 0.03 | 0.541 ± 0.035 | 0.548 ± 0.027 | 0.444 ± 0.043 |  |  |  |  |  |  |  |  |  |  |  |
| C=CC(=O)Nc1cccc(Oc2nc(Nc3ccc(N4CCN(C)CC4)cc3)nc3ccsc23)c1 [Olmutinib] | 1.07 ± 0.043 | 1.14 ± 0.069 | 1.08 ± 0.029 | 1.15 ± 0.061 | 1.05 ± 0.014 | 1.09 ± 0.025 | 1.149 ± 0.0031 | 1.14 ± 0.073 | 1.07 ± 0.049 | 0.849 ± 0.032 | 0.0282 ± 0.0066 |  |  |  |  |  |  |  |  |  |  |  |
| CC(C)(C)c1cc(NC(=O)Nc2ccc(-c3cn4c(n3)sc3cc(OCCN5CCOCC5)ccc34)cc2)no1 [Quizartinib] | 1.11 ± 0.14 | 1.209 ± 0.012 | 1.21 ± 0.095 | 1.23 ± 0.019 | 1.2 ± 0.052 | 1.14 ± 0.012 | 1.21 ± 0.03 | 1.23 ± 0.061 | 1.14 ± 0.078 | 1.03 ± 0.038 | 0.734 ± 0.077 |  |  |  |  |  |  |  |  |  |  |  |
| CNC(=O)c1cc(Oc2ccc(NC(=O)Nc3ccc(Cl)c(C(F)(F)F)c3)c(F)c2)ccn1 [Regorafenib] | 1.194 ± 0.0028 | 1.23 ± 0.02 | 1.22 ± 0.013 | 1.24 ± 0.049 | 1.21 ± 0.036 | 1.15 ± 0.031 | 1.21 ± 0.049 | 1.24 ± 0.036 | 1.32 ± 0.054 | 1.3 ± 0.03 | 0.772 ± 0.016 |  |  |  |  |  |  |  |  |  |  |  |
| CO[C@H]1C[C@@H]2CC[C@@H](C)[C@@](O)(O2)C(=O)C(=O)N2CCCC[C@H]2C(=O)O[C@H]([C@H](C)C[C@@H]2CC[C@@H](OP(C)(C)=O)[C@H](OC)C2)CC(=O)[C@H](C)/C=C(\C)[C@@H](O)[C@@H](OC)C(=O)[C@H](C)C[C@H](C)/C=C/C=C/C=C/1C [Ridaforolimus] | 1.14 ± 0.081 | 1.11 ± 0.065 | 1.07 ± 0.021 | 0.971 ± 0.07 | 0.896 ± 0.043 | 0.862 ± 0.026 | 0.839 ± 0.033 | 0.846 ± 0.049 | 0.833 ± 0.025 | 0.791 ± 0.045 | 0.749 ± 0.068 |  |  |  |  |  |  |  |  |  |  |  |
| COCc1c(-c2cc3cc(C)cc(OC)c3s2)c2c(N)ncnn2c1CN1CCNC(=O)C1 [Rogaratinib] | 1.11 ± 0.051 | 1.16 ± 0.028 | 1.16 ± 0.088 | 1.16 ± 0.043 | 1.15 ± 0.03 | 1.15 ± 0.018 | 1.12 ± 0.082 | 1.14 ± 0.061 | 1.09 ± 0.018 | 1.04 ± 0.019 | 0.898 ± 0.038 |  |  |  |  |  |  |  |  |  |  |  |
| N#CC[C@H](C1CCCC1)n1cc(-c2ncnc3[nH]ccc23)cn1 [Ruxolitinib] | 0.985 ± 0.022 | 1.062 ± 0.005 | 1.03 ± 0.017 | 1.04 ± 0.072 | 0.991 ± 0.028 | 0.976 ± 0.035 | 0.978 ± 0.023 | 0.9518 ± 0.0033 | 0.912 ± 0.032 | 0.915 ± 0.036 | 0.777 ± 0.012 |  |  |  |  |  |  |  |  |  |  |  |
| Cc1cc(C)c(/C=C2\C(=O)Nc3ccccc32)[nH]1 [Semaxanib] | 0.981 ± 0.022 | 0.962 ± 0.03 | 0.994 ± 0.026 | 0.935 ± 0.018 | 0.917 ± 0.02 | 0.8931 ± 0.0076 | 0.901 ± 0.046 | 0.923 ± 0.029 | 0.932 ± 0.06 | 0.902 ± 0.072 | 0.812 ± 0.017 |  |  |  |  |  |  |  |  |  |  |  |
| Cc1nc(-c2cn3c(n2)-c2ccc(-c4cnn(C(C)(C)C(N)=O)c4)cc2OCC3)n(C(C)C)n1 [Taselisib] | 1.09 ± 0.027 | 1.1 ± 0.036 | 1.06 ± 0.019 | 1.01 ± 0.027 | 0.923 ± 0.036 | 0.75 ± 0.021 | 0.634 ± 0.009 | 0.549 ± 0.017 | 0.477 ± 0.0088 | 0.445 ± 0.026 | 0.451 ± 0.015 |  |  |  |  |  |  |  |  |  |  |  |
| CN1CCC(COc2cnc(-c3cccc(Cn4nc(-c5cccc(C#N)c5)ccc4=O)c3)nc2)CC1 [Tepotinib] | 1.11 ± 0.034 | 1.21 ± 0.032 | 1.14 ± 0.055 | 1.16 ± 0.039 | 1.16 ± 0.043 | 1.15 ± 0.065 | 1.18 ± 0.067 | 1.16 ± 0.096 | 1.14 ± 0.08 | 1.1 ± 0.044 | 0.865 ± 0.047 |  |  |  |  |  |  |  |  |  |  |  |
| COc1cc2nccc(Oc3ccc(NC(=O)Nc4cc(C)on4)c(Cl)c3)c2cc1OC [Tivozanib] | 1.17 ± 0.059 | 1.16 ± 0.028 | 1.19 ± 0.096 | 1.19 ± 0.054 | 1.16 ± 0.042 | 1.122 ± 0.0093 | 1.15 ± 0.027 | 1.23 ± 0.066 | 1.25 ± 0.092 | 1.12 ± 0.054 | 0.918 ± 0.037 |  |  |  |  |  |  |  |  |  |  |  |
| C[C@@H]1CCN(C(=O)CC#N)C[C@@H]1N(C)c1ncnc2[nH]ccc12 [Tofacitinib] | 1.2 ± 0.035 | 1.24 ± 0.023 | 1.2 ± 0.004 | 1.23 ± 0.028 | 1.215 ± 0.012 | 1.192 ± 0.0029 | 1.19 ± 0.018 | 1.22 ± 0.031 | 1.11 ± 0.021 | 1.1 ± 0.015 | 0.943 ± 0.029 |  |  |  |  |  |  |  |  |  |  |  |
| COc1cc2c(cc1O)CCN[C@]21CS[C@@H]2c3c(OC(C)=O)c(C)c4c(c3[C@H](COC1=O)N1[C@@H]2[C@H]2c3c(cc(C)c(OC)c3O)C[C@@H]([C@@H]1O)N2C)OCO4 [Trabectedin] |  |  |  |  |  |  |  |  |  |  |  | 1.22 ± 0.037 | 1.2 ± 0.027 | 1.22 ± 0.047 | 1.18 ± 0.06 | 1.2 ± 0.045 | 1.1605 ± 0.00091 | 0.64 ± 0.054 | 0.811 ± 0.043 | 0.84 ± 0.038 | 1.17 ± 0.051 | 1.2 ± 0.071 |
| CC(=O)Nc1cccc(-n2c(=O)n(C3CC3)c(=O)c3c(Nc4ccc(I)cc4F)n(C)c(=O)c(C)c32)c1 [Trametinib] | 1.16 ± 0.02 | 1.17 ± 0.045 | 1.19 ± 0.04 | 1.14 ± 0.035 | 1.05 ± 0.0092 | 0.859 ± 0.018 | 0.615 ± 0.0083 | 0.552 ± 0.011 | 0.511 ± 0.017 | 0.517 ± 0.0077 | 0.4614 ± 0.002 |  |  |  |  |  |  |  |  |  |  |  |
| Cc1cc(Nc2ncnc3ccc(NC4=NC(C)(C)CO4)cc23)ccc1Oc1ccn2ncnc2c1 [Tucatinib] | 1.17 ± 0.019 | 1.2 ± 0.024 | 1.2 ± 0.024 | 1.18 ± 0.03 | 1.21 ± 0.068 | 1.21 ± 0.068 | 1.22 ± 0.09 | 1.19 ± 0.098 | 1.14 ± 0.016 | 1.13 ± 0.074 | 1.08 ± 0.0088 |  |  |  |  |  |  |  |  |  |  |  |
